Measurements reported in ChEMBL document CHEMBL1201862, “PubChem BioAssay data set” (2004).
Active and inactive are the calls of the source.

Columns and labels:
[1] = biological target: Cytochrome P450 2C19 (Homo sapiens, UniProt P33261); experiment: Cytochrome panel assay with activity outcomes. Panel member name: p450-cyp2c19 Compounds with AC50 equal or less than 10 uM are considered active; type: functional
[2] = alpha-synuclein stem-loop luciferase translation blockers – H4 neuroglioma cells, luminescence, confirmation (AID 1988); type: functional, cell-based
[3] = luciferase reporter signal suppression in cells – H4 neuroglioma cells, luminescence, dose response (AID 1990); type: functional, cell-based
[4] = Luminescence Cell-Based Dose Response HTS to Identify Inhibitors of 5'UTR Stem-Loop Driven Prion Protein mRNA Translation in H4 Neuroglioblastoma Cells. [Related pubchem assays: 1827 (Project Summary), 1813 (Primary HTS)]; type: functional
[5] = biological target: T1, Cytochrome P450 1A2 (Homo sapiens, UniProt P05177)
T1 sequence (P05177 whole entry): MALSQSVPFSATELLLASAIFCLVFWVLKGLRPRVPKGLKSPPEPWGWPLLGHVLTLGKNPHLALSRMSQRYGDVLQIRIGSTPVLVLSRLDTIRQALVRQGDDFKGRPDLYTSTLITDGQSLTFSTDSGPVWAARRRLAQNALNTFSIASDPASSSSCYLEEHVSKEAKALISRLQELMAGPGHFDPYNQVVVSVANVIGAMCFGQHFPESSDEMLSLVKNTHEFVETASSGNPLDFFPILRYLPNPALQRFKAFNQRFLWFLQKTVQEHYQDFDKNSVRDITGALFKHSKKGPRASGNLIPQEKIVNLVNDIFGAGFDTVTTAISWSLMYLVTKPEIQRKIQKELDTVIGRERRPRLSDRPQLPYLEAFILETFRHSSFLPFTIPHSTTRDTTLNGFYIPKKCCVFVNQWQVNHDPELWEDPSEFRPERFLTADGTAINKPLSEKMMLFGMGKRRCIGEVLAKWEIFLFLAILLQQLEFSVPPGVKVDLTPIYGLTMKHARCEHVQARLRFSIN

[6] = biological target: Cytochrome P450 2D6 (Homo sapiens, UniProt P10635);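 further: CYP2D6 member of a cytochrome P450 panel assay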
Cytochrome P450 2D6, sequence (P10635 whole entry): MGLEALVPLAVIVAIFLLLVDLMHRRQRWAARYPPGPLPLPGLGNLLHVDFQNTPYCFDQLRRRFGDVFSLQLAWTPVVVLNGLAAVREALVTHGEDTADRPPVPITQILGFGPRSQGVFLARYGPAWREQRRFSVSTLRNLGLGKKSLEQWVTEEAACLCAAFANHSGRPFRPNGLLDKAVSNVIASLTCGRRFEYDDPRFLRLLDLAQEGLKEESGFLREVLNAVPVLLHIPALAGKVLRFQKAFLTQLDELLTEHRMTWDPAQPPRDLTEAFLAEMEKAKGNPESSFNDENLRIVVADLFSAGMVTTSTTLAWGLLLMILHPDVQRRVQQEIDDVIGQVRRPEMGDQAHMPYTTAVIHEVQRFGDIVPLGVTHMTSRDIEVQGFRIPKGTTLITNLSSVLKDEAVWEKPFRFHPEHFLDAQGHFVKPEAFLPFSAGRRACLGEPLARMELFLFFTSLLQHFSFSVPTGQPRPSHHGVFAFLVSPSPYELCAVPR

[7] = biological target: Cytochrome P450 2C9 (Homo sapiens, UniProt P11712)
Cytochrome P450 2C9, sequence (P11712 whole entry): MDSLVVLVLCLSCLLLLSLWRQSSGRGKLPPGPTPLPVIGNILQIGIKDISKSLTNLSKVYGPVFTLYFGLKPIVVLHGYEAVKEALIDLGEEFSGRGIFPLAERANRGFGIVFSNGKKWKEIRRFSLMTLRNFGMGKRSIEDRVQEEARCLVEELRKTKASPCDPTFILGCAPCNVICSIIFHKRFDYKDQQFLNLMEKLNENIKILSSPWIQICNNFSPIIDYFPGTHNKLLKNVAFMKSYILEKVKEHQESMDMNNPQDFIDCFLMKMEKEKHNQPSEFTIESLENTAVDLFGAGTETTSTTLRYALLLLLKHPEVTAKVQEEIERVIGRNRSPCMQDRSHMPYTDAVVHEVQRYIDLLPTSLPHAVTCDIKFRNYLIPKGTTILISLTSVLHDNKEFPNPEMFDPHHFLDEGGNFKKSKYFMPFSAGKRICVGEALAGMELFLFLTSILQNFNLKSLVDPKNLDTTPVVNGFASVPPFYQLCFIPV

[8] = biological target: Cytochrome P450 3A4 (Homo sapiens, UniProt P08684);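 further: CYP3A4 tested as one member of a cytochrome P450 panel screen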
Cytochrome P450 3A4, sequence (P08684 whole entry): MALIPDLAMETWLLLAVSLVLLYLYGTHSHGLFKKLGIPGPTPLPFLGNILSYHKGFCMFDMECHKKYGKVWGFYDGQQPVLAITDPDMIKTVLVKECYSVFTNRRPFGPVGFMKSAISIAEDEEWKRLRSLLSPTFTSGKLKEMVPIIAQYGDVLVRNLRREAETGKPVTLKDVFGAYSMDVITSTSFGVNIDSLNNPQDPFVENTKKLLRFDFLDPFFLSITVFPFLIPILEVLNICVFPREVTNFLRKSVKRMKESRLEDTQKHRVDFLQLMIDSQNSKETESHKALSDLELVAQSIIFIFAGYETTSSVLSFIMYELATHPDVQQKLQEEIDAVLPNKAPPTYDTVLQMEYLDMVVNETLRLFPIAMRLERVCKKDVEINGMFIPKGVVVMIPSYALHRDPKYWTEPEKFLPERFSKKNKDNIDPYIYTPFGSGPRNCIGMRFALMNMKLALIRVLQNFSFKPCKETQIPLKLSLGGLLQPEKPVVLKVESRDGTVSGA

[9] = biological target: T2, Corticotropin-releasing factor receptor 2/Corticotropin-releasing factor-binding protein (Homo sapiens, UniProt P24387+Q13324); experiment: activators of CRF receptor 2 with binding protein – uHTS hits, confirmation (AID 602473); type: functional; conditions: read-out: EC50_Mean
T2 sequence (Q13324 whole entry): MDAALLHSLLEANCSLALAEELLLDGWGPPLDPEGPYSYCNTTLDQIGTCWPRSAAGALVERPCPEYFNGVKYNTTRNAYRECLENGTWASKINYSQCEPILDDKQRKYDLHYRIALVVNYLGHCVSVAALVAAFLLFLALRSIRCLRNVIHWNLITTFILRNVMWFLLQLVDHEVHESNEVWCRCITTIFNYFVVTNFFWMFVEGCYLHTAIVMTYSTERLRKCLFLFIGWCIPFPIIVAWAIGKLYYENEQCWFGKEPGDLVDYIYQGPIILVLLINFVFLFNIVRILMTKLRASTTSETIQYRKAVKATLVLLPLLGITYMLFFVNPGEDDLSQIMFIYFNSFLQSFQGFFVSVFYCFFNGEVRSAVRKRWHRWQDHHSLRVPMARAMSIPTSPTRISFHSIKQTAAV
T2 sequence (P24387 whole entry): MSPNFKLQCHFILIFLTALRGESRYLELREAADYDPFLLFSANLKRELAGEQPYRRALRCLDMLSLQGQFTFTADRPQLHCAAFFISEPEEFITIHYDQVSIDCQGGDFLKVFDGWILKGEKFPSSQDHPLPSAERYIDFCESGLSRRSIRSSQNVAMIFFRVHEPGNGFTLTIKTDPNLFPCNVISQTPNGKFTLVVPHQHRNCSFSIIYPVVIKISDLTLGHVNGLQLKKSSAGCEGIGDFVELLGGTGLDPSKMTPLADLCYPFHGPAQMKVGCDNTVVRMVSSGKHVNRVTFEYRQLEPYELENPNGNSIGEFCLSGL

Cytochrome P450 2C19, sequence (P33261 whole entry): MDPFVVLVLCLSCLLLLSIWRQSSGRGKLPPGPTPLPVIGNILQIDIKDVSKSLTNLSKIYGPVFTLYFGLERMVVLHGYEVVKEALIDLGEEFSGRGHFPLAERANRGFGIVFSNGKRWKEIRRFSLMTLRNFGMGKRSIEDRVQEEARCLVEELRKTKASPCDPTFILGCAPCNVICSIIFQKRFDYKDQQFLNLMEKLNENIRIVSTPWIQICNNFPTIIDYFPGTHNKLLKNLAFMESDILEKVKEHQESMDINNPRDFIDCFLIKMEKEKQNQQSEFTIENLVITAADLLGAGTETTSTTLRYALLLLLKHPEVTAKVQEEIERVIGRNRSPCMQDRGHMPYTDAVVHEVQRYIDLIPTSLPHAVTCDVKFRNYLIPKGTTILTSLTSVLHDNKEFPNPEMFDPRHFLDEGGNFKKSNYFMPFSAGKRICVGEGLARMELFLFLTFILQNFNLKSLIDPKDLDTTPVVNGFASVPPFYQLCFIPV

With `Cc1ccc(SCN2CCCCC2)cc1.O=C(Cl)c1ccc([N+](=O)[O-])cc1` the AC50 ([1]; read-out: AC50) was 2.51 µM (inconclusive).
In the case of `C/C(=N\OCc1cccc(C(=O)O)c1)c1ccc(Cl)cc1`, the EC50 [2] is reported as 4.77 µM (active), the EC50 [3] is reported as 7.12 µM (inconclusive) and the EC50 [4] is reported as 0.254 µM (active).
For `CS(=O)(=O)Nc1cccc(-c2nc(N3CCNCC3)c3ccccc3n2)c1`, the AC50 [5] was 20 µM (inconclusive).
With `CC12CCC(C(=O)Nc3cccc4ccccc34)(C1Br)C2(C)C` (stereo not drawn) the AC50 [6] was 20 µM (inconclusive) and the AC50 [7] was 2.51 µM (inconclusive).
With `Oc1c(CN2CCOCC2)ccc(CN2CCOCC2)c1O` the AC50 [7] was 7.94 µM (inconclusive).
With `COc1ccccc1CNc1ncncc1-c1cccc(NS(C)(=O)=O)c1` the AC50 [6] was 12.6 µM (inconclusive).
For `CC(=O)Nc1c(C(=O)N2CCOCC2)cnn1-c1ccc(C)c(C)c1`, the AC50 [8] was 3.98 µM (inconclusive) and the AC50 [1] was “inconclusive”.
In the case of `CCOc1ccc(C(C)NC(=S)NCc2ccc(Cl)cc2)cc1` (stereo not drawn), the EC50 [9] is reported as 14.6 µM (active).
For `COC(=O)c1c(C)oc2ccc(N(C(=O)c3ccncc3)S(=O)(=O)c3ccc(C)cc3)cc12`, the EC50 [2] was 8.07 µM (active), the EC50 [3] was > 120 µM (not active) and the EC50 [4] was 10.9 µM (active).
For `O=c1cnc2cnc(Nc3ccccc3)nc2n1C1CC1`, the AC50 [8] was 25.1 µM (inconclusive), the AC50 ([1]; read-out: AC50) was 20 µM (inconclusive) and the AC50 [7] was 31.6 µM (inconclusive).
In the case of `COc1ccc(/C(O)=C(\C#N)c2nc3ccccc3n2C)cc1OC`, the AC50 [8] is reported as 3.55 µM (inconclusive), the AC50 [6] is reported as 1.58 µM (inconclusive) and the AC50 ([1]; read-out: AC50) is reported as 39.8 µM (inconclusive). The AC50 [7] was 0.251 µM (inconclusive).
With `c1ccc2sc(N3CCN(Cc4ccc5c(c4)OCO5)CC3)nc2c1` the AC50 [6] was 39.8 µM (inconclusive) and the AC50 [7] was 7.94 µM (inconclusive).
For `COc1cccc(Nc2ncc3nc(-c4cccs4)c(=O)n(-c4ccccc4)c3n2)c1`, the AC50 [8] was 20 µM (inconclusive) and the AC50 [5] was 3.16 µM (inconclusive).
With `CN(CCc1ccc(Cl)c(Cl)c1)C[C@@H](O)COc1ccc(NS(C)(=O)=O)cc1` the AC50 [8] was 15.8 µM (inconclusive) and the AC50 [5] was 15.8 µM (inconclusive).
For `c1ccc(Nc2ncnc3ccc(-c4ccoc4)cc23)cc1`, the AC50 [6] was 20 µM (inconclusive).
With `CN(C)CCNC(=O)C(=O)NCC1OCCCN1S(=O)(=O)c1cccs1` (stereo not drawn) the EC50 [2] was > 120 µM (not active), the EC50 [3] was > 120 µM (not active) and the EC50 [4] was > 120 µM (not active).
In the case of `COCCn1c(=O)c(-c2cc(F)cc(F)c2)nc2cnc(N(C)C)nc21`, the AC50 [5] is reported as 5.01 µM (inconclusive).
For `Cn1cc(-c2nc3cncnc3n(Cc3ccc(F)cc3)c2=O)c2ccccc21`, the AC50 [5] was 1.26 µM (inconclusive).
For `COc1ccc(-n2c(SCC(=O)Nc3ccccc3)nnc2-c2ccoc2C)cc1`, the EC50 [2] was 15.9 µM (active), the EC50 [3] was > 120 µM (not active) and the EC50 [4] was 29.7 µM (active).
In the case of `Cc1cccc(/C=C2\CCC(=C3SCCCS3)C2=O)c1`, the EC50 [2] is reported as 8.14 µM (active), the EC50 [3] is reported as 5.22 µM (active) and the EC50 [4] is reported as 9.28 µM (active).
In the case of `CC(CNC(=O)c1ccc(NC2=NC3CS(=O)(=O)CC3S2)cc1)c1ccccc1` (stereo not drawn), the EC50 [9] is reported as > 53 µM (inactive).
For `CCCN[C@@H]1CCc2c(OC)cccc2[C@@H]1C`, the AC50 [5] was 31.6 µM (inconclusive).
In the case of `CCCCCC(=O)Nc1cc2nc(O)cc(COC)c2cc1C`, the AC50 [7] is reported as 10 µM (inconclusive).
For `COc1ccc2[nH]cc(CCNc3ncncc3-c3c(C)noc3C)c2c1`, the AC50 [6] was 20 µM (inconclusive) and the AC50 [7] was 1.26 µM (inconclusive).
With `O=C1C(c2ccccn2)=[N+]([O-])c2ccccc21` the AC50 [5] was 0.158 µM (active).
In the case of `CCC/C=C(\CCC)C(NS(=O)(=O)c1ccccc1)c1ccc(C(F)(F)F)cc1` (stereo not drawn), the AC50 [5] is reported as 12.6 µM (inconclusive).
With `c1csc(CNc2ncncc2-c2ccoc2)c1` the AC50 [7] was 0.794 µM (inconclusive).
